# According to ChEMBL document CHEMBL5726766, “Sulfonamide compounds as voltage-gated sodium channel modulators” (2019):
# Assay: (§1) Membrane potential dye assay: HEK-293 cells overexpressing the channel of interest were seeded in a 96-well plate at a density of 30000 cells/well and incubated at 37° C./5% CO2 for 48 hr. The assay was carried out using the Red Membrane Potential Dye (Molecular Devices) following the manufacturer's instructions. Briefly, the cells were incubated with 1× red membrane potential dye for 1.5 hour. The cells were then treated with various concentrations of the test compounds for 15-20 min followed by depolarization with 10-30 μM Veratridine. The fluorescence was read following excitation at 510-545 nm and emission at 565-625 nm in FLIPR. The “max-min” fluorescence values were used to calculate the % inhibition.
# Settings: HEK293
row,SMILES,IC50
1,O=S(=O)(Nc1ncccn1)c1ccc2c(c1)OCC[C@H]2c1ccc(C(F)(F)F)cc1O[C@H]1CCOC1,> 10 µM
2,O=S(=O)(Nc1cccnn1)c1ccc2c(c1)OCC[C@H]2c1ccc(C(F)(F)F)cc1-c1ccc(F)cn1,> 10 µM
3,O=S1(=O)CCN(c2cc(C(F)(F)F)ccc2[C@H]2CCOc3cc(S(=O)(=O)Nc4cccnn4)ccc32)CC1 (racemic),> 10 µM
4,O=S1(=O)CCN(c2cc(C(F)(F)F)ccc2[C@@H]2CCOc3cc(S(=O)(=O)Nc4ncccn4)ccc32)CC1,> 10 µM
5,O=C1OCCN1c1cc(C(F)(F)F)ccc1[C@H]1CCOc2cc(S(=O)(=O)Nc3ncccn3)ccc21 (racemic),> 10 µM
6,O=C1OCCN1c1cc(C(F)(F)F)ccc1[C@H]1CCOc2cc(S(=O)(=O)Nc3ncc(F)cn3)ccc21 (racemic),> 10 µM
7,Cn1nccc1-c1cc(C(F)(F)F)ccc1[C@@H]1CCOc2cc(S(=O)(=O)Nc3cc(F)ccn3)ccc21,> 10 µM
8,O=C1CCCN1c1cc(C(F)(F)F)ccc1[C@H]1CCOc2cc(S(=O)(=O)Nc3ncccn3)ccc21 (racemic),> 10 µM
9,O=S(=O)(Nc1ncccn1)c1ccc2c(c1)OCC[C@H]2c1ccc(C(F)(F)F)cc1OC1CCOCC1,> 10 µM
10,O=S(=O)(Nc1ncccn1)c1ccc2c(c1)OCC[C@H]2c1ccc(C(F)(F)F)cc1-n1ccnn1,> 10 µM
11,CCCc1cc(C(F)(F)F)ccc1[C@@H]1CCOc2cc(S(=O)(=O)Nc3ncccn3)ccc21,> 10 µM
12,O=C(O)c1ccc(-c2cc(C(F)(F)F)ccc2[C@H]2CCOc3cc(S(=O)(=O)Nc4ncc(F)cn4)ccc32)cc1,> 10 µM
13,O=S1(=O)CCN(c2cc(C(F)(F)F)ccc2[C@H]2CCOc3cc(S(=O)(=O)Nc4ncc(F)cn4)ccc32)CC1 (racemic),> 10 µM
14,Cn1nccc1-c1cc(Cl)ccc1[C@@H]1CCOc2cc(S(=O)(=O)Nc3cccc(F)n3)ccc21,> 10 µM
15,Cc1nc(-c2cc(C(F)(F)F)ccc2[C@@H]2CCOc3cc(S(=O)(=O)Nc4cccnn4)ccc32)co1,> 10 µM
16,Cc1nc(-c2cc(C(F)(F)F)ccc2[C@@H]2CCOc3cc(S(=O)(=O)Nc4ccncn4)ccc32)cs1,> 10 µM
17,Cn1nccc1-c1cc(C(F)(F)F)ccc1[C@H]1CCOc2cc(S(=O)(=O)Nc3cccnc3F)ccc21,> 10 µM
18,COCCCc1cc(C(F)(F)F)ccc1[C@@H]1CCOc2cc(S(=O)(=O)Nc3ncccn3)ccc21,> 10 µM
19,O=S1(=O)CCN(c2cc(C(F)(F)F)ccc2[C@H]2CCOc3cc(S(=O)(=O)Nc4ncccn4)ccc32)CC1,> 10 µM
20,Cn1nccc1-c1cc(C(F)(F)F)ccc1[C@@H]1CCOc2cc(S(=O)(=O)Nc3cnccn3)ccc21,> 10 µM

row,SMILES,IC50
1,Cc1ccnc(NS(=O)(=O)c2ccc3c(c2)OCC[C@@H]3c2ccc(C(F)(F)F)cc2-c2ccnn2C)n1,> 10 µM
2,CC(C)Oc1cccc(NS(=O)(=O)c2ccc3c(c2)OCC[C@@H]3c2ccc(C(F)(F)F)cc2-c2ccnn2C)n1,> 10 µM
3,COCCc1cc(C(F)(F)F)ccc1[C@H]1CCOc2cc(S(=O)(=O)Nc3ccncn3)ccc21 (racemic),> 10 µM
4,O=S(=O)(Nc1ncc(F)cn1)c1ccc2c(c1)OCC[C@@H]2c1ccc(C(F)(F)F)cc1-c1nccs1,> 10 µM
5,COCCOc1cc(C(F)(F)F)ccc1[C@H]1CCOc2cc(S(=O)(=O)Nc3ncc(F)cn3)ccc21 (racemic),> 10 µM
6,O=S(=O)(Nc1ncc(F)cn1)c1ccc2c(c1)OCC[C@@H]2c1ccc(C(F)(F)F)cc1Cl (racemic),> 10 µM
7,COCCCc1cc(C(F)(F)F)ccc1[C@H]1CCOc2cc(S(=O)(=O)Nc3ncc(F)cn3)ccc21 (racemic),> 10 µM
8,O=S1(=O)CCN(c2cc(C(F)(F)F)ccc2[C@H]2CCOc3cc(S(=O)(=O)Nc4ccncn4)ccc32)CC1 (racemic),> 10 µM
9,O=S(=O)(Nc1ccncn1)c1ccc2c(c1)OCC[C@@H]2c1ccc(C(F)(F)F)cc1CCF (racemic),> 10 µM
10,COc1cc(C(F)(F)F)ccc1[C@@H]1CCOc2cc(S(=O)(=O)Nc3cccc(F)n3)ccc21,> 10 µM
11,Cc1nc(-c2cc(C(F)(F)F)ccc2[C@@H]2CCOc3cc(S(=O)(=O)Nc4ncc(F)cn4)ccc32)cs1,> 10 µM
12,CC(C)Oc1ccc(-c2cc(C(F)(F)F)ccc2[C@H]2CCOc3cc(S(=O)(=O)Nc4ncc(F)cn4)ccc32)cn1,> 10 µM
13,O=S(=O)(Nc1ncccn1)c1ccc2c(c1)OCC[C@@H]2c1ccc(C(F)(F)F)cc1O[C@@H]1CCOC1,> 10 µM
14,CS(=O)(=O)CCc1cc(C(F)(F)F)ccc1[C@H]1CCOc2cc(S(=O)(=O)Nc3ncc(F)cn3)ccc21,> 10 µM
15,O=S(=O)(Nc1ncc(F)cn1)c1ccc2c(c1)OCC[C@@H]2c1ccc(C(F)(F)F)cc1-c1ccc(F)nc1,> 10 µM
16,O=C1COCCN1c1cc(C(F)(F)F)ccc1[C@@H]1CCOc2cc(S(=O)(=O)Nc3ncccn3)ccc21,> 10 µM
17,O=S(=O)(Nc1ncc(F)cn1)c1ccc2c(c1)OCC[C@@H]2c1ccc(C(F)(F)F)cc1-c1ccc(F)cc1,> 10 µM
18,O=C1CCCN1c1cc(C(F)(F)F)ccc1[C@H]1CCOc2cc(S(=O)(=O)Nc3cccnn3)ccc21 (racemic),> 10 µM
19,O=S(=O)(Nc1ncccn1)c1ccc2c(c1)OCC[C@@H]2c1ccc(C(F)(F)F)cc1-n1ccnn1,> 10 µM
20,O=C1OCCN1c1cc(C(F)(F)F)ccc1[C@H]1CCOc2cc(S(=O)(=O)Nc3cccc(F)n3)ccc21 (racemic),> 10 µM

row,SMILES,IC50
1,O=S(=O)(Nc1ncc(F)cn1)c1ccc2c(c1)OCC[C@@H]2c1ccc(C(F)(F)F)cc1CCF (racemic),> 10 µM
2,Cc1nc(-c2cc(C(F)(F)F)ccc2[C@H]2CCOc3cc(S(=O)(=O)Nc4ncc(F)cn4)ccc32)cs1,> 10 µM
3,O=C1CCCN1c1cc(C(F)(F)F)ccc1[C@H]1CCOc2cc(S(=O)(=O)Nc3ncc(F)cn3)ccc21,> 10 µM
4,O=S(=O)(Nc1ncccn1)c1ccc2c(c1)OCC[C@H]2c1ccc(C(F)(F)F)cc1-c1ccc(F)cn1,> 10 µM
5,Cc1nc(-c2cc(C(F)(F)F)ccc2[C@@H]2CCOc3cc(S(=O)(=O)Nc4cccc(F)n4)ccc32)cs1,> 10 µM
6,O=S(=O)(Nc1cccnn1)c1ccc2c(c1)OCC[C@@H]2c1ccc(C(F)(F)F)cc1-c1ccc(F)cn1,> 10 µM
7,O=S(=O)(Nc1cccc(F)n1)c1ccc2c(c1)OCC[C@H]2c1ccc(C(F)(F)F)cc1O[C@H]1CCOC1,> 10 µM
8,O=S(=O)(Nc1ncccn1)c1ccc2c(c1)OCC[C@H]2c1ccc(C(F)(F)F)cc1OCCCF,> 10 µM
9,COCCCCc1cc(C(F)(F)F)ccc1[C@H]1CCOc2cc(S(=O)(=O)Nc3ncc(F)cn3)ccc21 (racemic),> 10 µM
10,O=S(=O)(Nc1ncc(F)cn1)c1ccc2c(c1)OCC[C@H]2c1ccc(C(F)(F)F)cc1-c1nccs1,> 10 µM
11,COCCc1cc(C(F)(F)F)ccc1[C@H]1CCOc2cc(S(=O)(=O)Nc3ncccn3)ccc21 (racemic),> 10 µM
12,Cc1cccc(NS(=O)(=O)c2ccc3c(c2)OCC[C@H]3c2ccc(C(F)(F)F)cc2-c2ccnn2C)n1,> 10 µM
13,Cn1nccc1-c1cc(C(F)(F)F)ccc1[C@@H]1CCOc2cc(S(=O)(=O)Nc3ncccc3F)ccc21,> 10 µM
14,CS(=O)(=O)CCc1cc(C(F)(F)F)ccc1[C@H]1CCOc2cc(S(=O)(=O)Nc3cccc(F)n3)ccc21,> 10 µM
15,COCCCOc1cc(C(F)(F)F)ccc1[C@H]1CCOc2cc(S(=O)(=O)Nc3ncc(F)cn3)ccc21 (racemic),> 10 µM
16,O=S(=O)(Nc1ncc(F)cn1)c1ccc2c(c1)OCC[C@H]2c1ccc(C(F)(F)F)cc1-c1ccc(F)cc1,> 10 µM
17,O=C1CCCN1c1cc(C(F)(F)F)ccc1[C@@H]1CCOc2cc(S(=O)(=O)Nc3ncc(F)cn3)ccc21,> 10 µM
18,Cn1nccc1-c1cc(C(F)(F)F)ccc1[C@H]1CCOc2cc(S(=O)(=O)Nc3ncccc3F)ccc21,> 10 µM

# Assay: as §1
# Settings: HEK293
row,SMILES,IC50
1,O=S(=O)(Nc1ncccn1)c1ccc2c(c1)OCC[C@H]2c1ccc(C(F)(F)F)cc1O[C@@H]1CCOC1,0.083 µM
2,O=S(=O)(Nc1ncccn1)c1ccc2c(c1)OCC[C@H]2c1ccc(C(F)(F)F)cc1O[C@H]1CCOC1,0.149 µM
3,O=S(=O)(Nc1cccc(F)n1)c1ccc2c(c1)OCC[C@@H]2c1ccc(C(F)(F)F)cc1O[C@H]1CCOC1,0.0009 µM
4,O=S(=O)(Nc1ncc(F)cn1)c1ccc2c(c1)OCC[C@@H]2c1ccc(C(F)(F)F)cc1-c1nccs1,0.011 µM
5,O=S(=O)(Nc1ncccn1)c1ccc2c(c1)OCC[C@@H]2c1ccc(C(F)(F)F)cc1O[C@H]1CCOC1,0.038 µM
6,Cc1nc(-c2cc(C(F)(F)F)ccc2[C@@H]2CCOc3cc(S(=O)(=O)Nc4ncc(F)cn4)ccc32)cs1,0.016 µM
7,O=S(=O)(Nc1ncccn1)c1ccc2c(c1)OCC[C@@H]2c1ccc(C(F)(F)F)cc1O[C@@H]1CCOC1,1.02 µM
8,Cc1nc(-c2cc(C(F)(F)F)ccc2[C@H]2CCOc3cc(S(=O)(=O)Nc4ncc(F)cn4)ccc32)cs1,0.008 µM
9,O=S(=O)(Nc1cccc(F)n1)c1ccc2c(c1)OCC[C@H]2c1ccc(C(F)(F)F)cc1O[C@H]1CCOC1,0.831 µM
10,O=S(=O)(Nc1ncccn1)c1ccc2c(c1)OCC[C@H]2c1ccc(C(F)(F)F)cc1OCCCF,> 10 µM
11,O=S(=O)(Nc1ncc(F)cn1)c1ccc2c(c1)OCC[C@H]2c1ccc(C(F)(F)F)cc1-c1nccs1,1.12 µM
